Legend:
[1] = tested on: barnyardgrass; experiment: Test A pre-/postemergence herbicide test; type: in vivo, Echinochloa crus-galli
Method in brief: (§1)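 Seeds sown in sandy loam received a preemergence directed soil spray of compound in non-phytotoxic solvent with surfactant; postemergence plants (2–10 cm, one- to two-leaf stage) were sprayed to runoff at the same time. After ~10 days in greenhouse, injury was rated visually versus untreated controls (0 = no effect, 100 = complete control).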

[2] = tested on: large crabgrass; experiment: Test A pre-/postemergence herbicide test; type: in vivo, Digitaria sanguinalis
Method in brief: as §1

[3] = tested on: giant foxtail; experiment: Test A pre-/postemergence herbicide test; type: in vivo, Setaria faberi
Method in brief: as §1

[4] = tested on: morningglory; experiment: Test A pre-/postemergence herbicide test; type: in vivo, Ipomoea spp.
Method in brief: as §1

[5] = tested on: redroot pigweed; experiment: Test A pre-/postemergence herbicide test; type: in vivo, Amaranthus retroflexus
Method in brief: as §1

[6] = tested on: velvetleaf; experiment: Test A pre-/postemergence herbicide test; type: in vivo, Abutilon theophrasti
Method in brief: as §1

[7] = tested on: barnyardgrass; experiment: Test B pre-/postemergence herbicide test; type: in vivo, Echinochloa crus-galli; details: for Barnyardgrass plant response rating: postemergence
Method in brief: (§2)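 Greenhouse pot assay with simultaneous preemergence (treated seed) and postemergence (2–18 cm seedlings) applications of surfactant-containing, non-phytotoxic solvent formulations. Response scored visually 13–15 days later on a 0–100 scale, 100 meaning complete control.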

[8] = tested on: Surinam grass; experiment: Test B pre-/postemergence herbicide test; type: in vivo, Urochloa decumbens; details: for Surinam Grass plant response rating: postemergence
Method in brief: (§3)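 Test chemicals in a non-phytotoxic solvent mixture with surfactant were applied preemergence to seeded species and postemergence to plants 2-18 cm tall (1- to 4-leaf stage); rice and barnyardgrass were also tested in a flooded paddy at the 2-leaf stage. Visual rating versus controls after 13-15 days in greenhouse, scale 0 (no effect) to 100 (complete control).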

[9] = tested on: cocklebur; experiment: Test B pre-/postemergence herbicide test; type: in vivo, Xanthium strumarium
Method in brief: as §2

[10] = tested on: corn; experiment: Test B pre-/postemergence herbicide test; type: in vivo, Zea mays; details: for Corn plant response rating: postemergence
Method in brief: as §3

[11] = tested on: large crabgrass; experiment: Test B pre-/postemergence herbicide test; type: in vivo, Digitaria sanguinalis; details: for Crabgrass, Large plant response rating: postemergence
Method in brief: as §3

[12] = tested on: giant foxtail; experiment: Test B pre-/postemergence herbicide test; type: in vivo, Setaria faberi; details: for Foxtail, Giant plant response rating: postemergence
Method in brief: as §3

[13] = tested on: lambsquarters; experiment: Test B pre-/postemergence herbicide test; type: in vivo, Chenopodium album; details: for Lambsquarters plant response rating: postemergence
Method in brief: as §3

[14] = tested on: morningglory; experiment: Test B pre-/postemergence herbicide test; type: in vivo, Ipomoea coccinea; details: for Morningglory plant response rating: postemergence
Method in brief: as §2

[15] = tested on: pigweed; experiment: Test B pre-/postemergence herbicide test; type: in vivo, Amaranthus retroflexus; details: for Pigweed plant response rating: postemergence
Method in brief: as §3

[16] = tested on: velvetleaf; experiment: Test B pre-/postemergence herbicide test; type: in vivo, Abutilon theophrasti; details: 100 is complete control
Method in brief: as §3

[17] = tested on: blackgrass; experiment: Test B postemergence herbicide test; type: in vivo, Alopecurus myosuroides; details: postemergence
Method in brief: (§4)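 Greenhouse test; postemergence application to plants at 1–4 leaves (2–18 cm); paddy species at 2 leaves; evaluated visually vs controls at 13–15 days; scale 0–100 (100 = complete control).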

[18] = tested on: wheat; experiment: Test B postemergence herbicide test; type: in vivo, Triticum aestivum; set-up: key to Wheat plant response rating: 0 = no effect, 100 = complete control; details: postemergence
Method in brief: (§5)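 Each value is a visual 0–100 response rating taken against controls 13 to 15 days after treatment in the greenhouse. Plants received formulated chemical postemergence at the 1- to 4-leaf stage or, in flooded paddy, at the 2-leaf stage.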

[19] = tested on: wild oat; experiment: Test B postemergence herbicide test; type: in vivo, Avena fatua; details: postemergence
Method in brief: as §5

[20] = tested on: rice; experiment: Test B flooded paddy test; type: in vivo, Oryza sativa; details: 1000 g ai/ha, scale 0 to 100 (0 no effect, 100 complete control)
Method in brief: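 Paddy species grown to the 2-leaf stage under flooding; blackgrass sprayed postemergence at 2–18 cm (1- to 4-leaf stage). Plants kept in a greenhouse for 13 to 15 days, then visually rated against controls on 0 (no effect) to 100 (complete control).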

[21] = tested on: small flower umbrella sedge; experiment: Test B flooded paddy test; type: in vivo, Cyperus difformis; details: 1000 g ai/ha, scale 0 to 100 (0 no effect, 100 complete control)
Method in brief: as §4

[22] = tested on: ducksalad; experiment: Test B flooded paddy test; type: in vivo, Heteranthera limosa; details: 1000 g ai/ha, scale 0 to 100 (0 no effect, 100 complete control)
Method in brief: as §4

[23] = tested on: barnyardgrass; experiment: Test B flooded paddy test; type: in vivo, Echinochloa crus-galli; details: 1000 g ai/ha, scale 0 to 100 (0 no effect, 100 complete control)
Method in brief: as §4

[24] = Postemergence, 500 g ai/ha, 0 to 100 scale, 0 no effect, 100 complete control
[25] = Postemergence, 2000 g ai/ha, 0 to 100 scale, 0 no effect, 100 complete control
[26] = Preemergence, 2000 g ai/ha, visual rating, 0 to 100 scale (0 no effect, 100 complete control)
[27] = preemergence, 500 g ai/ha, visual injury, 0 to 100 scale (0 no effect, 100 complete control)
[28] = 125 g ai/ha, 0 is no effect, 100 is complete control, preemergence
[29] = 125 g ai/ha, visual rating, scale 0 (no effect) to 100 (complete control)
[30] = 500 g ai/ha, visual rating, 0 = no effect, 100 = complete control, preemergence
[31] = 500 g ai/ha, scale 0 to 100, 0 is no effect, 100 is complete control

For `CCNC(=O)c1cccc(NC(=O)c2nn(C3CCCC3)nc2CC)c1` [Compound 356], the “Barnyardgrass plant response rating” value [1, 24] was 25, the “Plant response rating, Barnyardgrass” value [1, 25] was 40 and the “Barnyardgrass plant response rating” value [1, 26] was 45. For the same compound, the “Barnyardgrass plant response rating” value [1, 27] was 5, the “Crabgrass, Large plant response rating” value [2, 24] was 10 and the “Plant response rating, Crabgrass, Large” value [2, 25] was 15. The “Crabgrass, Large plant response rating” value [2, 26] was 20, the “Crabgrass, Large plant response rating” value [2, 27] was 10 and the “Foxtail, Giant plant response rating” value [3, 24] was 10. The “Plant response rating, Foxtail, Giant” value [3, 25] was 10, the “Foxtail, Giant plant response rating” value [3, 26] was 45 and the “Foxtail, Giant plant response rating” value [3, 27] was 20. For the same compound, the “Morningglory plant response rating” value [4, 24] was 10, the “Plant response rating, Morningglory” value [4, 25] was 20 and the “Morningglory plant response rating” value [4, 26] was 15. The “Morningglory plant response rating” value [4, 27] was 5, the “Pigweed plant response rating” value [5, 24] was 65 and the “Plant response rating, Pigweed” value [5, 25] was 70. For the same compound, the “Pigweed plant response rating” value [5, 26] was 80, the “Pigweed plant response rating” value [5, 27] was 25 and the “Velvetleaf plant response rating” value [6, 24] was 10. The “Plant response rating, Velvetleaf” value [6, 25] was 10, the “Velvetleaf plant response rating” value [6, 26] was 20 and the “Velvetleaf plant response rating” value [6, 27] was 0. For the same compound, the “Plant response rating (0 to 100 scale), Barnyardgrass” value [7, 28] was 60, the “Barnyardgrass plant response rating” value [7, 29] was 0 and the “Plant response rating, Barnyardgrass” value [7, 30] was 80. The “Barnyardgrass plant response rating” value [7, 31] was 0, the “Plant response rating (0 to 100 scale), Surinam Grass” value [8, 28] was 10 and the “Surinam Grass plant response rating” value [8, 29] was 10. For the same compound, the “Plant response rating, Surinam Grass” value [8, 30] was 60, the “Surinam Grass plant response rating” value [8, 31] was 20 and the “Plant response rating (0 to 100 scale), Cocklebur” value [9, 28] was 0. For the same compound, the “Plant response rating, Cocklebur” value [9, 30] was 20, the “Cocklebur plant response rating” value ([9]; postemergence, 500 g ai/ha, scale 0 to 100, 0 is no effect, 100 is complete control) was 0 and the “Plant response rating (0 to 100 scale), Corn” value [10, 28] was 10. For the same compound, the “Corn plant response rating” value [10, 29] was 0, the “Plant response rating, Corn” value [10, 30] was 50 and the “Corn plant response rating” value [10, 31] was 0. For the same compound, the “Plant response rating (0 to 100 scale), Crabgrass, Large” value [11, 28] was 40, the “Crabgrass, Large plant response rating” value [11, 29] was 10 and the “Plant response rating, Crabgrass, Large” value [11, 30] was 90. For the same compound, the “Crabgrass, Large plant response rating” value [11, 31] was 30, the “Plant response rating (0 to 100 scale), Foxtail, Giant” value [12, 28] was 10 and the “Foxtail, Giant plant response rating” value [12, 29] was 30. For the same compound, the “Plant response rating, Foxtail, Giant” value [12, 30] was 80, the “Foxtail, Giant plant response rating” value [12, 31] was 30 and the “Plant response rating (0 to 100 scale), Lambsquarters” value [13, 28] was 40. The “Lambsquarters plant response rating” value [13, 29] was 10, the “Plant response rating, Lambsquarters” value [13, 30] was 100 and the “Lambsquarters plant response rating” value [13, 31] was 50. The “Plant response rating (0 to 100 scale), Morningglory” value [14, 28] was 0, the “Morningglory plant response rating” value [14, 29] was 0 and the “Plant response rating, Morningglory” value [14, 30] was 10. For the same compound, the “Morningglory plant response rating” value [14, 31] was 10, the “Plant response rating (0 to 100 scale), Pigweed” value [15, 28] was 70 and the “Pigweed plant response rating” value [15, 29] was 30. For the same compound, the “Plant response rating, Pigweed” value [15, 30] was 100, the “Pigweed plant response rating” value [15, 31] was 70 and the “Plant response rating (0 to 100 scale), Velvetleaf” value ([16]; 125 g ai/ha, 0 is no effect, preemergence) was 0. The “Velvetleaf plant response rating” value ([16]; postemergence, 500 g ai/ha, scale 0 to 100, 0 is no effect) was 0, the “Blackgrass plant response rating” value [17, 29] was 0 and the “Blackgrass plant response rating” value [17, 31] was 10. For the same compound, the “Wheat plant response rating” value [18, 29] was 0, the “Wheat plant response rating” value [18, 31] was 10 and the “Oat, Wild plant response rating” value [19, 29] was 0. The “Oat, Wild plant response rating” value [19, 31] was 20, the “Rice plant response rating” value [20] was 50 and the “Sedge, Umbrella plant response rating” value [21] was 70. The “Ducksalad plant response rating” value [22] was 60 and the “Barnyardgrass plant response rating” value [23] was 50.

From US20060069132A1, “Azolecarboxamide herbicides” (priority 2004, published 2006)
